Measured values as given in article PMC11641365, “Evaluation of In Vitro Biological Activity of Flavanone/Chromanone Derivatives: Molecular Analysis of Anticancer Mechanisms in Colorectal Cancer” (International Journal of Molecular Sciences, 2024).

How the values were obtained:
Assay type in all cases: cell-based, human
HMEC-1 = test: MTT cell viability assay, model of normal cells; conditions: difference of IC50 values
Description: The cytotoxic activity of the 3-benzylideneflavanones, 3-benzylidenechromanones derivatives (compounds 1, 2, 3, 4, 5) and 5′-(3-methoxyphenyl)-2-phenyl-4′,5′-dihydro-4H-spiro[chromano-3,3′-pirazol]-4-one (compound 3a) was evaluated using the MTT assay (4,5-dimethylthiazol-2-yl)-2,5-diphenyltetrazoliumbromide), a colorimetric method that quantifies cell viability.
Cell viability was determined using the metabolic microplate spectrophotometric assay with Methylthiazolyl diphenyltetrazolium bromide (MTT) (Sigma-Aldrich; St. Louis, MO, USA). The MTT method belongs to metabolic tests for determining cell viability and consists of measuring the absorbance of a violet solution of formazan, a product of the reduction of a water-soluble yellow MTT by oxidoreductive enzymes (mainly mitochondrial succinate dehydrogenase) of living cells. […]
The appropriate number of cells for a given cell line (6–8 × 10^3 cells/mL) were seeded onto colorless, sterile 96-well microplates (Nunc, Roskilde, Denmark) in the number appropriate for a given cell line. […] The absorbance of the formazan solution, after gentle mixing, was read at a wavelength of λ = 580 nm and a reference wavelength of λ = 720 nm (Biotek Power Wave HT, Biotek Instruments, Winooski, VT, USA). […] The absorbance of the control was taken as 100%.

Caco-2 = test: Cell cycle analysis via flow cytometry (propidium iodide); conditions: compound at IC50, 24 h, vs control
Description: The most commonly used fluorescent dyes for cell cycle analysis are fluorochromes that penetrate the cell membrane into the interior of permeabilized cells and bind stoichiometrically to DNA via intercalation, e.g., DAPI, propidium iodide (PI). The analysis is performed on cells fixed in ethanol. In this work, the cell cycle analysis was performed using the method described by Darzynkiewicz and Juan.
Cells (10 × 10^3) were seeded in 35 mm dishes and cultured in the medium for 24 h to attain the logarithmic growth phase. […] Subsequently, cells were trypsinized and centrifuged for 10 min at 400× g at 4 °C. The cell suspension in 100 μL of PBS was fixed in 1 mL of 70% ethanol (−20 °C) and stored at this temperature until analysis. Immediately before analysis, the ethanol-fixed cell suspension was centrifuged at 10,000 rpm for 10 min at 4 °C. The pellet was washed with cold (4 °C) PBS to remove residual ethanol, and the cell suspension was centrifuged again under the same conditions. A volume of 300 μL of PBS containing 4 mg/mL propidium iodide (final concentration 75 μM) and 1 mg/mL RNAse A (final concentration 20 μg/mL) was added to the cell pellet and incubated for at least 30 min at 37 °C in the dark. Stained cells were analyzed using a flow cytometer (Becton Dickinson, Franklin Lakes, NJ, USA), counting 10,000 cells in each sample. Data were analyzed using FlowJo 10.10 software (FlowJo, Williamson Way Ashland, OR, USA).

SW620 = test: Alkaline comet assay (DNA damage); conditions: compound at IC50, 12 h, vs control group
From the text: Single-cell gel electrophoresis, also known as the comet assay, is a rapid and sensitive method for assessing DNA damage at the single-cell level. Cells are lysed and electrophoresed. Both single-strand and double-strand breaks are detected under alkaline conditions. The released DNA is denatured and moves in the agarose gel toward the anode during electrophoresis. The image, obtained after staining with the fluorescent dye 4′,6-diamidino-2-phenylindole (DAPI), resembles a “comet” with a distinct “head” (intact DNA) and “tail” (damaged DNA fragments). The length of the tail depends on the number and size of the broken DNA strands.
Cells (1 × 10^3) were seeded in 35 mm dishes and cultured in the medium for 24 h to attain the logarithmic growth phase. […] Quantitative analysis of the DNA comet image of preparations stained with DAPI solution (2 μg/L) was performed using a camera connected to a fluorescence microscope. The comet DNA analysis was performed under a Nikon Eclipse fluorescence microscope (Nikon, Tokyo, Japan) equipped with a 4910 COHU video camera (Cohu, Inc., San Diego, CA, USA) and a computer with Lucia-Comet v. […] Each time, from each preparation, 100 randomly selected comets were counted. The extent of DNA damage is quantified by measuring the length of the comet tail and the amount of DNA it contains. […]

Row | Structure (SMILES) | IC50 against HMEC-1 higher than for the majority of tested cancer cell lines (selectivity) (HMEC-1) | Increase in the G2/M phase cell percentage (Caco-2) | Increase in DNA content in the comet tail (SW620)
1 | O=C1/C(=C/c2ccccc2)COc2ccccc21 [Compound 1] | approximately 10 µM | 30% | 
2 | COc1cccc(/C=C2/C(=O)c3ccccc3OC2c2ccccc2)c1 (stereo not drawn) [Compound 3] |  |  | approximately 40%
